Counter-ions that a name gives are not always drawn.
Target: T1, rHDAC6 (Homo sapiens, UniProt Q9UBN7)
T1 construct: FLAG; made in house
T1 sequence (Q9UBN7 1-1215): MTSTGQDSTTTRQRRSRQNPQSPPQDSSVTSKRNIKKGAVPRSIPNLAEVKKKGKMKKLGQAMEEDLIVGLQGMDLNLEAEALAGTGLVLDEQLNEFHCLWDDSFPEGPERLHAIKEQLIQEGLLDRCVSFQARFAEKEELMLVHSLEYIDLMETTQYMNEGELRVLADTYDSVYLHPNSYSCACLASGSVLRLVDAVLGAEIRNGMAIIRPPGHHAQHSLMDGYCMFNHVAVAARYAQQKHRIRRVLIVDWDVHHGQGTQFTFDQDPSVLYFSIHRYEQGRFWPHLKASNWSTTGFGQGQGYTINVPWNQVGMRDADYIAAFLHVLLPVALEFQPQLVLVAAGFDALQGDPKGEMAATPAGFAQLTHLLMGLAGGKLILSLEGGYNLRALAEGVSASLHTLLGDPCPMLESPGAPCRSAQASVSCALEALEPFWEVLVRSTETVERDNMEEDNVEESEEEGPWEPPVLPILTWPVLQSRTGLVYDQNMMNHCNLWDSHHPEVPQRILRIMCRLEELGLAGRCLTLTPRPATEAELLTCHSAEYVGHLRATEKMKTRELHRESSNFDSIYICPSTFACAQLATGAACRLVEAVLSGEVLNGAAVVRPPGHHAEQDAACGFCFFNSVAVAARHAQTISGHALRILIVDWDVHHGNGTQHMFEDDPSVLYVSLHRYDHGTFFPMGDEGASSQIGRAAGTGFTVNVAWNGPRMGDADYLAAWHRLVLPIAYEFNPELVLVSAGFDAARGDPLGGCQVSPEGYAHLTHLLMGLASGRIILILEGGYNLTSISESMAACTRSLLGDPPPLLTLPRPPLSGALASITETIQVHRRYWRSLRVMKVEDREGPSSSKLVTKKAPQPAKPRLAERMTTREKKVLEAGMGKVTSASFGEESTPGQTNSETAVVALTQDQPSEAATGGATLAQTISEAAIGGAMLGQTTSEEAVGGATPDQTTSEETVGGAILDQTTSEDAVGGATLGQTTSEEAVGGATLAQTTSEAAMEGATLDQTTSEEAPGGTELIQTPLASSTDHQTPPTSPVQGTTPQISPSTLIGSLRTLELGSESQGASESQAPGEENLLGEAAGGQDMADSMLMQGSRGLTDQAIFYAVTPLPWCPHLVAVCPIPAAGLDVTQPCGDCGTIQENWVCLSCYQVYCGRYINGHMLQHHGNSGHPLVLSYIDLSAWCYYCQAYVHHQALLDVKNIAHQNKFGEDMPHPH
Experiment: rHDAC6 enzymatic assay (recombinant FLAG-HDAC6)
Assay type: biochemical
Details: FLAG-HDAC6 from HEK293; 10 μM Ac-NH-GGK(Ac)-AMC, 3 h at 30° C.; read-out: rHDAC6 [pIC50] (converted)
From the text: Human HDAC1 and HDAC6 fused with the FLAG epitope are stably expressed in HEK293 cells while human HDAC3 and HDAC8 fused with the FLAG epitope are overexpressed in baculo-virus infected insect (Sf21) cells. To ensure stability of FLAG-HDAC3 the SMRT protein is co-expressed in the corresponding insect cells. […] FLAG-HDAC3 and FLAG-HDAC8 are also purified by M2-agarose affinity chromatography after mass cultivation of the insect cells and cell lysis.
The HDAC enzyme activity assay is done as described by Wegener et al. (Chem. & Biol. 10, 61-68, 2003). Briefly 40 μl of a 1:100 dilution (=0.4 μl) nuclear HeLa extract (mixture of class I and II HDACs), 29 μl enzyme buffer (15 mM Tris HCl pH 8.1, 0.25 mM EDTA, 250 mM NaCl, 10% v:v glycerol) and 1 μl test compound are added to a well of a 96 well microtiter plate and reaction started by addition of 3 μl substrate (Ac-NH-GGK(Ac)-AMC; final concentration 25 μM and final volume […]). […] After incubation at room temperature for further 40 min, fluorescence is measured using a Wallac Victor 1420 multilabel counter (Ex 355 nm, Em 460 nm) for quantification of AMC (7-amino-4-methylcoumarin) generated by trypsine cleavage of the deacetylated peptide. […] The corresponding pIC50 values of the compounds for HDAC inhibitory activity are determined from the concentration-effect curves by means of non-linear regression (Graphpad Prism software).
The HDAC1, HDAC3 and HDAC6 enzymatic assays are done with slight modifications with recombinant FLAG-HDAC1 and FLAG-HDAC6 proteins isolated from HEK293 cell lysates or recombinant FLAG-HDAC3 isolated from insect cells, respectively. The HDAC8 enzymatic assay using recombinant FLAG-HDAC8 isolated from insect cells is done with a different substrate. About 4.5 ng/well FLAG-HDAC1 and 3.1 ng/well FLAG-HDAC6 (dependent on batches and specific activity) are incubated with 6 μM or 10 μM Ac-NH-GGK(Ac)-AMC substrate, respectively, for 3 h at 30° C. About 1.7 ng/well FLAG-HDAC3 is incubated with 6 μM Ac-NH-GGK(Ac)-AMC substrate for 2 h at 30° C., while approximately 130 ng/well FLAG-HDAC8 is incubated with 50 μM Ac-RHK(Ac)K(Ac)-AMC substrate for 3 h at 30° C. Termination of the reaction and all further steps are done as described for HeLa cell nuclear extracts as a source for HDAC enzymatic activity. The corresponding pIC50 values of the compounds for HDAC1, HDAC3, HDAC6 and HDAC8 inhibitory activity are determined from the concentration-effect curves by means of non-linear regression.

SMILES	IC50 [nM]
COCCCNC(=O)N1CCc2cc(C(=O)NO)ccc2C1 [Example 5, N6-Hydroxy-N2-(3-methoxypropyl)-3,4-dihydroisoquinoline-2,6(1H)-dicarboxamide]	1 to 100
COCCOCC(=O)N1CCc2cc(C(=O)NO)ccc2C1 [Example 11, N-Hydroxy-2-[(2-methoxyethoxy)acetyl]-1,2,3,4-tetrahydroisoquinoline-6-carboxamide]	100 to 1000
CN(C)CCCC(=O)N1CCc2cc(C(=O)NO)ccc2C1 [Example 9, 2-[4-(Dimethylamino)butanoyl]-N-hydroxy-1,2,3,4-tetrahydroisoquinoline-6-carboxamide hydrochloride]	100 to 1000
O=C(NO)c1ccc2c(c1)CCN(C(=O)Cc1c[nH]c3ccccc13)C2 [Example 1, N-Hydroxy-2-(indol-3-ylacetyl)-1,2,3,4-tetrahydroisoquinoline-6-carboxamide hydrochloride]	1 to 100
O=C(NO)c1ccc2c(c1)CCN(C(=O)C1CCOC1)C2 (stereo not shown) [Example 13, N-Hydroxy-2-(tetrahydrofuran-3-ylcarbonyl)-1,2,3,4-tetrahydroisoquinoline-6-carboxamide]	100 to 1000
O=C(NO)c1ccc2c(c1)CCN(C(=O)C1CCC1)C2 [Example 3, 2-(Cyclobutylcarbonyl)-N-hydroxy-1,2,3,4-tetrahydroisoquinoline-6-carboxamide]	1 to 100
O=C(NO)c1ccc2c(c1)CCN(C(=O)Cc1cccnc1)C2 [Example 8, N-Hydroxy-2-(pyridin-3-ylacetyl)-1,2,3,4-tetrahydroisoquinoline-6-carboxamide hydrochloride]	100 to 1000
Cc1nccn1CC(=O)N1CCc2cc(C(=O)NO)ccc2C1 [Example 10, N-Hydroxy-2-[(2-methyl-1H-imidazol-1-yl)acetyl]-1,2,3,4-tetrahydroisoquinoline-6-carboxamide hydrochloride]	100 to 1000
CNC(=O)N1CCc2cc(C(=O)NO)ccc2C1 [Example 4, N6-Hydroxy-N2-methyl-3,4-dihydroisoquinoline-2,6(1H)-dicarboxamide]	1 to 100
COCCCOC(=O)N1CCc2cc(C(=O)NO)ccc2C1 [Example 6, 3-Methoxypropyl-6-(hydroxycarbamoyl)-3,4-dihydroisoquinoline-2(1H)-carboxylate]	100 to 1000
CC(=O)N1CCc2cc(C(=O)NO)ccc2C1 [Example 12, 2-Acetyl-N-hydroxy-1,2,3,4-tetrahydroisoquinoline-6-carboxamide]	100 to 1000
O=C(NO)c1ccc2c(c1)CCN(C(=O)CCc1cccnc1)C2 [Example 7, N-Hydroxy-2-(3-pyridin-3-ylpropanoyl)-1,2,3,4-tetrahydroisoquinoline-6-carboxamide hydrochloride]	1 to 100

Second part, the molecule after the results:

IC50 [nM]	SMILES
1 to 100	O=C(NO)c1ccc2c(c1)CN(C(=O)Cc1ccccn1)CC2 [Example 21, N-Hydroxy-2-(pyridin-2-ylacetyl)-1,2,3,4-tetrahydroisoquinoline-7-carboxamide hydrochloride]
1 to 100	O=C(NO)c1ccc2c(c1)CN(C(=O)Cc1c[nH]c3ccccc13)CC2 [Example 18, N-Hydroxy-2-(1H-indol-3-ylacetyl)-1,2,3,4-tetrahydroisoquinoline-7-carboxamide]
1 to 100	O=C(NO)c1ccc2c(c1)CCN(C(=O)C1CC1)C2 [Example 16, N-Hydroxy-2-(cyclopropylcarbonyl)-1,2,3,4-tetrahydroisoquinoline-6-carboxamide]
1 to 100	CC#CC(=O)N1CCc2ccc(C(=O)NO)cc2C1 [Example 17, 2-But-2-ynoyl-N-hydroxy-1,2,3,4-tetrahydroisoquinoline-7-carboxamide]
1 to 100	O=C(NO)c1ccc2c(c1)CN(C(=O)NCCc1ccccc1)CC2 [Example 22, N7-Hydroxy-N2-(2-phenylethyl)-3,4-dihydroisoquinoline-2,7(1H)-dicarboxamide]
100 to 1000	O=C(NO)c1ccc2c(c1)CN(C(=O)C1CCOC1)CC2 (stereo not shown) [Example 20, N-Hydroxy-2-(tetrahydrofuran-3-ylcarbonyl)-1,2,3,4-tetrahydroisoquinoline-7-carboxamide]
1 to 100	COc1ccc2[nH]c(C(=O)N3CCc4cc(C(=O)NO)ccc4C3)cc2c1 [Example 15, N-Hydroxy-2-[(5-methoxy-1H-indol-2-yl)carbonyl]-1,2,3,4-tetrahydroisoquinoline-6-carboxamide]
1 to 100	COc1ccc2[nH]c(C(=O)N3CCc4ccc(C(=O)NO)cc4C3)cc2c1 [Example 24, N-Hydroxy-2-[(5-methoxy-1H-indol-2-yl)carbonyl]-1,2,3,4-tetrahydroisoquinoline-7-carboxamide]
1 to 100	O=C(NO)c1ccc2c(c1)CN(C(=O)Cc1cccnc1)CC2 [Example 19, N-Hydroxy-2-(pyridin-3-ylacetyl)-1,2,3,4-tetrahydroisoquinoline-7-carboxamide hydrochloride]
1 to 100	Cc1ccc(C(=O)N2CCc3ccc(C(=O)NO)cc3C2)cc1 [Example 23, N-Hydroxy-2-(4-methylbenzoyl)-1,2,3,4-tetrahydroisoquinoline-7-carboxamide]

From patent US8575193B2, “N-substituted tetrahydroisoquinoline/isoindoline hydroxamic acid compounds” (4SC AG, priority 2008, dated 2013)
